Data set [1] in a line: Microsomal stability assay. Format: in vitro ADME. The method, then:
Microsomal stability was determined by Absorption Systems (Exton, PA). INX-315 was tested in mixed-gender human liver microsomes (Lot #1010420), male Sprague-Dawley rat liver microsomes (Lot #1910100), male CD-1 mouse liver microsomes (Lot #2010017), and male beagle dog liver microsomes (Lot #2010046) were purchased from XenoTech/BioIVT by Absorption Systems. The reaction mixture, minus NADPH, was prepared as described below. The test article was added into the reaction mixture at a final concentration of 1 µmol/L. The control compound, testosterone, was run simultaneously with the test article in a separate reaction. The reaction mixture (without cofactor) was equilibrated in a shaking water bath at 37°C for 5 minutes. The reaction was initiated by the addition of the cofactor, and the mixture was incubated in a shaking water bath at 37°C. Aliquots (100 µL) were withdrawn at 0, 10, 20, 30, and 60 minutes. Test article and testosterone samples were immediately combined with 400 µL of ice-cold 50/50 acetonitrile (ACN)/H2O containing 0.1% formic acid and internal standard to terminate the reaction. The samples were then mixed and centrifuged to precipitate proteins. All samples were assayed by LC-MS/MS using electrospray ionization. The peak area response ratio (PARR) of analyte to internal standard at each time point was compared to the PARR at time 0 to determine the percent remaining at each time point. Half-lives and clearance were calculated using GraphPad software (RRID:SCR_002798), fitting to a single-phase exponential decay equation.

The target of a further data set is T1, CDK7 (Homo sapiens, UniProt P50613).
T1 construct: purchased Carna 04-108
T1 sequence (P50613 whole entry): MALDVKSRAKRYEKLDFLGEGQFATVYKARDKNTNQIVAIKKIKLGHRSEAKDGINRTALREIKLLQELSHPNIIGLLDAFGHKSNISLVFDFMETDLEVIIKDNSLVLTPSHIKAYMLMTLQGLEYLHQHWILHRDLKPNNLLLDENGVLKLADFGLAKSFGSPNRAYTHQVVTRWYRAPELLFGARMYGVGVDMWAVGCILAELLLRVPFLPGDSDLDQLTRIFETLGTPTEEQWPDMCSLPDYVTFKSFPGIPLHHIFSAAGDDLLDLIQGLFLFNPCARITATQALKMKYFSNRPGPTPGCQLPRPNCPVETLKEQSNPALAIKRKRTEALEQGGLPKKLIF
T1 sequence (P51946 whole entry partner): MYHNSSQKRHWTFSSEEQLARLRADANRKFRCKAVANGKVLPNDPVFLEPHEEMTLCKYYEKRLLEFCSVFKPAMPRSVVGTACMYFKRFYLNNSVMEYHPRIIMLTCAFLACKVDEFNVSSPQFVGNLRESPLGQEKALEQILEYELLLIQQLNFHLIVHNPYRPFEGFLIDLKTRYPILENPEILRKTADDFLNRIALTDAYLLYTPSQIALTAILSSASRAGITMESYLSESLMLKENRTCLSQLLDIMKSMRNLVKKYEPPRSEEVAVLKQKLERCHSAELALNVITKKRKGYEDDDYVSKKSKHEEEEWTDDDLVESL
T1 sequence (P51948 whole entry partner): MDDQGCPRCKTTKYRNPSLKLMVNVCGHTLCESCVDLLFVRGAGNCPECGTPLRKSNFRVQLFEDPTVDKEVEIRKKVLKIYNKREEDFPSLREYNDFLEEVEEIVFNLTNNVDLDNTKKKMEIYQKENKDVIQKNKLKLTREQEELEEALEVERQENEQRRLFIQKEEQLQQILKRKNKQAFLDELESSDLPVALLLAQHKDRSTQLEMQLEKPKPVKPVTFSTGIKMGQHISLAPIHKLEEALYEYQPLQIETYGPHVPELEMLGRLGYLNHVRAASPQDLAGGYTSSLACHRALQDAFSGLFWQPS
Kind of data set: Nanosyn biochemical assay. Particulars: ATP at Km, value (SEM), read-out: IC50 (nmol/L) CDK7. The method, then: (§1) Compounds were tested in kinase assays (Nanosyn, Inc.). The assays were completed using microfluidic kinase detection technology (Caliper Assay Platform). The compounds were tested in 12-point dose–response format in singlicate at the Km for ATP. Phosphoacceptor substrate peptide concentration used was 1 µmol/L and staurosporine was used as the reference compound for all assays. Details for individual Nanosyn assays performed are provided here: […]

Data set [2] deals with T2, CDK1/cyclin B1 (Homo sapiens, UniProt P06493).
T2 construct: purchased Millipore 14-450M
T2 sequence (P06493 whole entry): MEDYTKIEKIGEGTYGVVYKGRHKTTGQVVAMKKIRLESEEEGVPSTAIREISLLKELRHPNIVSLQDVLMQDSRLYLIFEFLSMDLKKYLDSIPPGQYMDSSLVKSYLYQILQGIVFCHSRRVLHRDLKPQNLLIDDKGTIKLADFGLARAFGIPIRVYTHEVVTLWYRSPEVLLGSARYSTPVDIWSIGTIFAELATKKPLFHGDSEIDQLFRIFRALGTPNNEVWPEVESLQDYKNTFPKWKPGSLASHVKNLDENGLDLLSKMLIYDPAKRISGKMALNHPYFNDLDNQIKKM
T2 sequence (P14635 whole entry partner): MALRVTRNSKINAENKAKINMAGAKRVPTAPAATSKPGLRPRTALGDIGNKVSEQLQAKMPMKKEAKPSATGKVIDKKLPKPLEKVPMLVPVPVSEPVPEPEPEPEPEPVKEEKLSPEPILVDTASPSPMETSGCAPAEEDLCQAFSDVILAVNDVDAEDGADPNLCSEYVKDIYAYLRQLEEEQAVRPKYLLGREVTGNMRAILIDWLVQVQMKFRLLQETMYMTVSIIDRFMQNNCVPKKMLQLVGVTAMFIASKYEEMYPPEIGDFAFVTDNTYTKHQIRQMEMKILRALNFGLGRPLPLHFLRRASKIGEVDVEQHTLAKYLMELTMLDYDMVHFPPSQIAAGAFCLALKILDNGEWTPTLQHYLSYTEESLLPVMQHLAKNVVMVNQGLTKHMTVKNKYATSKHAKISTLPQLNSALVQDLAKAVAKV
Kind of data set: Nanosyn biochemical assay. As to conditions: value (SEM). The method, then: as §1

For the next data set, the target named is T3, CDK6/cyclin D3 (Homo sapiens, UniProt Q00534).
T3 construct: purchased Carna 04-107
T3 sequence (Q00534 whole entry): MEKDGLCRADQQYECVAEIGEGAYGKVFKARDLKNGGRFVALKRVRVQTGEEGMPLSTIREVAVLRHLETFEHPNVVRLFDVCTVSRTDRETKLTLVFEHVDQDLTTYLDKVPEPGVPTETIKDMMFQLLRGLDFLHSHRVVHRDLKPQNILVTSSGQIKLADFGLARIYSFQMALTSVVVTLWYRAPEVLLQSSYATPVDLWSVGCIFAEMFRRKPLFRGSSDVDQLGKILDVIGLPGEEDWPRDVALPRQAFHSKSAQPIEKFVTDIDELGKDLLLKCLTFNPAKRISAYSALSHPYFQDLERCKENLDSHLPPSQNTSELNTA
T3 sequence (P30281 whole entry partner): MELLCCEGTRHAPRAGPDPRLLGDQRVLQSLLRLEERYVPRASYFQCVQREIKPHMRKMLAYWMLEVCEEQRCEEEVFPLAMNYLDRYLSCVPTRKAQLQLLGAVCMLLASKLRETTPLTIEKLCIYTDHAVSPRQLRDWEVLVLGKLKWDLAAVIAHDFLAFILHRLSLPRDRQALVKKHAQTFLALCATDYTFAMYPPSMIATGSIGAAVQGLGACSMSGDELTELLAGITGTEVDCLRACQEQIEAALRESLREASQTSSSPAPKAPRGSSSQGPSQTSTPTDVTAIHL
Kind of data set: Nanosyn biochemical assay. Particulars: value (SEM). The method, then: as §1

The next data set has as its target T4, CDK3/cyclin E1 (Homo sapiens, UniProt Q00526).
T4 construct: purchased BPS 40103
Kind of data set: Nanosyn biochemical assay. Particulars: ATP at Km, value (SEM), read-out: IC50 (nmol/L) CDK3/cyclin E1. The method, then:
as §1

The target in another data set is T5, CDK2/cyclin A2 (Homo sapiens, UniProt P24941).
T5 construct: purchased Millipore 14-448
Kind of data set: Nanosyn biochemical assay. Particulars: ATP at Km, value (SEM), read-out: IC50 (nmol/L) CDK2/cyclin A2. The method, then:
as §1

In another data set the target is T6, CDK4/cyclin D1 (Homo sapiens, UniProt P11802).
T6 construct: purchased ThermoFisher PV4400
Kind of data set: Nanosyn biochemical assay. As to conditions: ATP at Km, value (SEM), read-out: IC50 (nmol/L) CDK4/cyclin D1. As for the experimental part:
as §1

Another data set addresses T7, CDK5/p25 (Homo sapiens, UniProt Q00535).
T7 construct: purchased BPS 40105
Kind of data set: Nanosyn biochemical assay. As to conditions: ATP at Km, value (SEM), read-out: IC50 (nmol/L) CDK5/p25. As for the experimental part:
as §1

The next data set concerns the target T8, CDK5 (Homo sapiens, UniProt Q00535).
T8 construct: purchased ThermoFisher PV3000
Kind of data set: Nanosyn biochemical assay. As to conditions: ATP at Km, value (SEM), read-out: IC50 (nmol/L) CDK5. The method, then:
as §1

In the next data set the target is T9, CDK2/cyclin E1 (Homo sapiens, UniProt P24941).
T9 construct: purchased Millipore 14-475
Kind of data set: Nanosyn biochemical assay. As to conditions: Nanosyn, ATP at Km; value (SEM); read-out: IC50 (nmol/L) CDK2/cyclin E1. The method, then: as §1

Data set [3] concerns the target T10, CDK9/cyclin T1 (Homo sapiens, UniProt P50750).
T10 construct: purchased Carna 04-110
Kind of data set: Nanosyn biochemical assay. Particulars: value (SEM). The method, then: as §1

Data set [4] relates to palbociclib-resistant MCF7 cells. Kind of data set: CellTiter Glo viability assay. Format: cell-based. Particulars: Homo sapiens, MCF7, Supp Fig S9B, CDK4/6 inhibitor monotherapy; read-out: IC50. The method, then:
(§2) An exception to this is MCF7PDRCl5-1 cells which were first cultured for 5 days without palbociclib then plated as described. MCF7PDRCl5-1 cells were treated with either a dose curve of the indicated CDK4/6i or a dose curve of INX-315 + 1 µmol/L of the indicated CDK4/6i. Cell viability was determined using the CellTiter-Glo assay (Promega, G9241) following manufacturer's instructions. Plates were processed on either BioTek Synergy2 multi-mode (Agilent) or ClarioSTAR (BMG Labtech) plate readers. T47D and MCF7 cells were seeded into […] plates using BioTek 406 (Aglient) and treated with a ten-point dose concentration from 10 µmol/L to 0.3 nmol/L of INX-315 for 2× doubling times. Plates were fixed with 4% PFA and stained with Rhodamine-Phalloidin (Bio-Trend, 00027) and DAPI (5 mg/mL, Invitrogen, catalog no. D1306). Plates were imaged using CellInsight CX7 LZR and DAPI-positive cells were counted using Thermo Fisher Scientific HCS Studio Cell Analysis Software.
Background: Cellular ATP, detected with luciferase, serves as a proxy for viable cell number.

Data set [5] relates to all CCNE1-amplified lines. Kind of data set: CellTiter Glo viability assay. Particulars: all CCNE1-amplified lines, INX-315 vs PF-07104091, 6 days. Format: cell-based. As for the experimental part: as §2
The next data set deals with MCF7 Abema-resistant. Kind of data set: Cell number dose-response. Format: cell-based. Particulars: Supp Fig S7D, Abema-Resistant in 500 nM abemaciclib, 7 days; read-out: IC50 (nM) MCF7.
From the text: (§3) MCF7 abemaciclib-resistant cells were generated by continuous treatment with abemaciclib at a concentration of 250 nmol/L for 72 days, followed by 500 nmol/L for 48 days. MCF7 fulvestrant-resistant cells were generated by continuous treatment of 100 nmol/L Fulvestrant for 125 days. MCF7 abemaciclib/fulvestrant-resistant cells were generated by treating abemaciclib-resistant cells continuously with 100 nmol/L fulvestrant for 137 days. T47D abemaciclib-resistant lines were generated by continuous treatment with abemaciclib at a concentration of 500 nmol/L for 73 days. T47D fulvestrant–resistant cells were generated by continuous treatment with 100 nmol/L fulvestrant for 68 days. T47D abemaciclib/fulvestrant-resistant cells were generated by treating abemaciclib-resistant cells with continuous treatment of 100 nmol/L Fulvestrant for 60 days. Resistant cell lines were cultured in medium containing drug(s) that the line is resistant to and further authenticated using short tandem repeat profiling.
as §2

For another data set, the system named is MCF7 Fulv-resistant. Kind of data set: Cell number dose-response. Format: cell-based. As to conditions: Supp Fig S7D, Fulv-Resistant in 100 nM fulvestrant, 7 days; read-out: IC50 (nM) MCF7.
From the text: as §3, §2

The test system of another data set is MCF7 Parent. Kind of data set: Cell number dose-response. Format: cell-based. As to conditions: Supp Fig S7D, 7 days, read-out: IC50 (nM) MCF7.
From the text: as §3, §2

The target in data set [6] is T2, CDK1/cyclin B1. Kind of data set: NanoBRET live cell target engagement. Format: binding. Particulars: Supp Fig S1E, NanoBRET; read-out: Intracellular IC50 (nM) CDK1/B1. The method, then:
(§4) Reaction Bio (Malvern, PA) conducted NanoBRET assays utilizing Promega NanoLuc technology with two replicates per experiment. The CDK2/E1 and CDK1/B1 values are the average of two separate experiments.
(§5) HEK293 cells were transfected using Opti-MEM without serum containing ratios of 9.0 µg/mL of Transfection Carrier DNA, 1.0 µg/mL of NanoLuc fusion vector DNA and 1 mL of Opti-MEM without phenol red. 30 µL of FuGENE HD transfection reagent was added to each milliliter of DNA mixture to form lipid:DNA complex. After incubation for 20 minutes at room temperature, 1 part lipid/DNA complex was added to 20 parts HEK293 cells in suspension. Cells were then plated and incubated overnight before being trypsinized and resuspended at 2 × 10^5 cells/mL. NanoBRET tracer reagent was added to cells at a ratio of 1 part tracer to 20 parts cell suspension. Cells were added to a 384-well plate and incubated for 1 hour. Plates were removed and incubated at room temperature for 15 minutes to equilibrate before 3x complete substrate plus inhibitor was added. After 2–3 minutes of incubation at room temperature, donor and acceptor wavelengths (460 nm and 600 nm, respectively) were measured using an Envision 2104 plate reader.
(In general: BRET reads energy transfer from a luciferase to a nearby fluorophore.)

Data set [7] concerns the target T10, CDK9/cyclin T1. Kind of data set: NanoBRET live cell target engagement. Format: binding. Particulars: Supp Fig S1E, NanoBRET; read-out: Intracellular IC50 (nM) CDK9/T1. The method, then: as §4, §5
[8] abbreviates: both sexes, human, liver microsomes, 1 µmol/L, 60 min incubation, read-out: Half-life.
The mark [9] stands for this setting: male, CD-1, liver microsomes, Mouse microsomes, 60 min incubation.
[10] abbreviates: male, Sprague-Dawley, rat, liver microsomes, 1 µmol/L, 60 min incubation, read-out: Half-life.
[11] abbreviates: male, beagle, dog, liver microsomes, 1 µmol/L, 60 min incubation, read-out: Half-life.
Setting [12] is: ATP at Km, read-out: IC50 (nmol/L) CDK1/cyclin B1.
[13] abbreviates: ATP at Km, read-out: IC50 (nmol/L) CDK6/cyclin D3.

Our source for the half-life and IC50 values is paper PMC10905675, “INX-315, a Selective CDK2 Inhibitor, Induces Cell Cycle Arrest and Senescence in Solid Tumors” (Cancer Discovery, 2023).

The structures appear in SMILES notation. Like-named read-outs stand apart in the source and are kept apart here. Bounds are passed on as bounds.

T10 sequence (P50750 whole entry): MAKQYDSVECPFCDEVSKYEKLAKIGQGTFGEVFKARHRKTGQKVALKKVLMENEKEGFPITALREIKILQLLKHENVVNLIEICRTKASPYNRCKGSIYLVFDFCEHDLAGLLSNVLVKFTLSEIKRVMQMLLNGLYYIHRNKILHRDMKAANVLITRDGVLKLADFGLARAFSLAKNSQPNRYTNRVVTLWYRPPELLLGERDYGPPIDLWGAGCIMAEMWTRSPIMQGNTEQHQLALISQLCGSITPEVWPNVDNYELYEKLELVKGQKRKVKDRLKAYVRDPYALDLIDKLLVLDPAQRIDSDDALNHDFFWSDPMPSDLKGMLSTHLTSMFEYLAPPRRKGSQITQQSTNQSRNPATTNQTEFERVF
T10 sequence (O60563 whole entry partner): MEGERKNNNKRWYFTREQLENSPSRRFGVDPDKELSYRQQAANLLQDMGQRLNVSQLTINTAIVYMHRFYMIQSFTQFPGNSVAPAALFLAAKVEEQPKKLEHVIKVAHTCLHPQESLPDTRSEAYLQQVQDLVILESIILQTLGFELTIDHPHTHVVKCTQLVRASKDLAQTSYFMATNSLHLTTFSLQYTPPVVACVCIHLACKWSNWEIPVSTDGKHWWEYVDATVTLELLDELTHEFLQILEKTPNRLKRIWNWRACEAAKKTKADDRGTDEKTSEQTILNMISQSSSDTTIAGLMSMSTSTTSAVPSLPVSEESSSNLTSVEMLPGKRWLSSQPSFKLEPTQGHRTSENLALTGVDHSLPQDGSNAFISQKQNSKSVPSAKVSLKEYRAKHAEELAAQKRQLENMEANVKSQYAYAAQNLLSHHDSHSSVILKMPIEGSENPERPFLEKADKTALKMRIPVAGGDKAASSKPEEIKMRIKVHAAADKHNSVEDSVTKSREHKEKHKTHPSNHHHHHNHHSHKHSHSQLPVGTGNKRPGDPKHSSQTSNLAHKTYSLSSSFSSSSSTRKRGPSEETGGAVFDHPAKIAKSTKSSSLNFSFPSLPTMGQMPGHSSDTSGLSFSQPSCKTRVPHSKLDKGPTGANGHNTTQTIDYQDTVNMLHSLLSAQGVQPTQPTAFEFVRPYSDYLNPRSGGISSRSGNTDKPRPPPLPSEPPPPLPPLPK
T8 sequence (Q00535 whole entry): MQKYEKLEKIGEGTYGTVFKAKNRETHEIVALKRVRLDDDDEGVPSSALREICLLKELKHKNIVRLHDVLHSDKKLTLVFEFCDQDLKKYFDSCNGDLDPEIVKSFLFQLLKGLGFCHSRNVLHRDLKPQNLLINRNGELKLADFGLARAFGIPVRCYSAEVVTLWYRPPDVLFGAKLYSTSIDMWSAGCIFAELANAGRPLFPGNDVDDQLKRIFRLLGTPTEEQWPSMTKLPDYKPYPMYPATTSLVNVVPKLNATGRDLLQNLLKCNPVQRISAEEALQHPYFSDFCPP
T8 sequence (Q15078 2-307 partner limits assumed): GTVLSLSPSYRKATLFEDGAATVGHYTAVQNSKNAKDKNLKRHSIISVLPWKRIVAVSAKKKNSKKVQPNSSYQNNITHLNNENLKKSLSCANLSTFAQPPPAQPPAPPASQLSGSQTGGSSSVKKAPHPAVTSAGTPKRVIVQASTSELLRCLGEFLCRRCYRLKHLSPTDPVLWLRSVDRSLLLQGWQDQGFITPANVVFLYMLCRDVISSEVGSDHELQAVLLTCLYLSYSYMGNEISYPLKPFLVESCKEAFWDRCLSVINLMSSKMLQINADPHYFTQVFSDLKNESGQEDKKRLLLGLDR
T7 sequence (Q00535 whole entry): as the sequence (Q00535 whole entry) above
T7 sequence (Q15078 99-307 partner limits assumed): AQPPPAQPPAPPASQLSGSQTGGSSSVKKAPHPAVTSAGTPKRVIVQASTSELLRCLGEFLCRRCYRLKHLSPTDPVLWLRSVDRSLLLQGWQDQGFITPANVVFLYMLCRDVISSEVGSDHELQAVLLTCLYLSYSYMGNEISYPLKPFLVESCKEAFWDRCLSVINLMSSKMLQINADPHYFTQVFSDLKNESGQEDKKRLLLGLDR

On to `NS(=O)(=O)c1ccc(Nc2ncc3cc4n(c3n2)C2(CCCCC2)CN=C4)cc1` [Compound B], for which the half-life at 1 µmol/L in [1] (setting [8]), in [1] (setting [9]), in data set [1] (setting [10]) and in data set [1] (setting [11]) was under 10 min throughout. Moreover, the IC50 on CDK7 came to 33.5 nmol/L; on CDK1/cyclin B1 [2] (setting [12]), 1.2 nmol/L; at CDK6/cyclin D3 (setting [13]), 8.6 nmol/L; at CDK3/cyclin E1, 0.5 nmol/L; on CDK2/cyclin A2, 0.1 nmol/L; on CDK4/cyclin D1, 3.6 nmol/L. Moreover, the IC50 at CDK5/p25 stood at 0.4 nmol/L; on CDK5 it was 0.5 nmol/L; at CDK2/cyclin E1, 0.1 nmol/L; on CDK9/cyclin T1 [3] (ATP at Km, read-out: IC50 (nmol/L) CDK9/cyclin T1), 1.6 nmol/L.
As to `C[C@@H]1NC(=O)C2(CCCCC2)n2c1cc1cnc(Nc3ccc(S(N)(=O)=O)cc3)nc12` [Compound C], the half-life (commonly the time in which the quantity being followed falls by half) at 1 µmol/L in data set [1] (setting [8]) is 15.3 min; in [1] (setting [9]), under 10 min; in [1] (setting [10]) it was under 10 min; in data set [1] (setting [11]), 23.4 min. Also, the IC50 was 796 nmol/L on CDK7; 41 nmol/L on CDK1/cyclin B1 [2] (setting [12]); 214 nmol/L on CDK6/cyclin D3 (setting [13]); 4 nmol/L at CDK2/cyclin A2; 50.2 nmol/L at CDK5; 5 nmol/L on CDK2/cyclin E1.
On to `CC(C)N1CCN(c2ccc(Nc3ncc4cc5n(c4n3)C3(CCCCC3)CNC5=O)nc2)CC1` [Lerociclib, lerociclib, reference compound], for which the IC50 in data set [4] worked out at 1420 nM.
Consider `COCc1cc(C(=O)Nc2cc([C@H]3CC[C@@H](OC(=O)NC(C)C)C3)[nH]n2)n(C)n1` [PF-07104091, reference compound], for which the IC50 was 125 nM in data set [5]; 65.8 nmol/L on CDK1/cyclin B1 [2] (Supp Fig S1C, read-out: IC50 (nM) CDK1/B1); over 1000 nmol/L on CDK6/cyclin D3 (Supp Fig S1C, read-out: IC50 (nM) CDK6/cyclin D3); 363 nmol/L at CDK9/cyclin T1 [3] (Supp Fig S1C, read-out: IC50 (nM) CDK9/cyclin T1); 41.8 nM in the data set on MCF7 Abema-resistant; 508 nM in the data set on MCF7 Fulv-resistant. For the same molecule, the IC50 with MCF7 Parent (Parent in DMSO) was 562 nM; with MCF7 Parent (Parent+Abema: 500 nM abemaciclib concurrently), 232 nM; on CDK1/cyclin B1 [6] it was 1180 nM; at CDK9/cyclin T1 [7], over 10000 nM.
`CN1CCN(c2ccc(Nc3ncc4cc5n(c4n3)C3(CCCCC3)CNC5=O)nc2)CC1` [Trilaciclib, reference compound]: the half-life at 1 µmol/L in data set [1] (setting [8]) is over 60 min; in [1] (both sexes, human, liver microsomes, longer than the duration of the experiment, read-out: calculated half-life (in parenthesis)), 66 min; in data set [1] (setting [9]) it was 28 min; in [1] (setting [10]), over 60 min; in data set [1] (male, Sprague-Dawley, rat, liver microsomes, longer than the duration of the experiment, read-out: calculated half-life (in parenthesis)) it was 73 min; in [1] (setting [11]), 5 min. The IC50 at CDK7 was 4640 nmol/L; on CDK5/p25, 1710 nmol/L; at CDK5 it was 1240 nmol/L.
